Biological target: T1, solubilized Aβ40 (Homo sapiens, UniProt P05067)
T1 construct: 20 μM of solubilized Aβ40
Experiment: Mass spectroscopy (MS) assay of binding to soluble Aβ40
Set-up: key: “+” = active; “−” = inactive
Details: 200 μM test compound, 20 μM solubilized Aβ40, 20% ethanol, pH 7.4, electrospray ionization MS
Protocol: Test compounds were purchased from commercial sources or synthesized and screened by mass spectroscopy (“MS”) assay, which gives data on the ability of compounds to bind to an amyloid protein. Samples were prepared as aqueous solutions containing 20% ethanol, 200 μM of a test compound and 20 μM of solubilized Aβ40. The pH value of each sample was adjusted to 7.4 (±0.2) by addition of 0.1% aqueous sodium hydroxide. The solutions were then analyzed by electrospray ionization mass spectroscopy using a Waters ZQ 4000 mass spectrometer. Samples were introduced by direct infusion at a flow-rate of 25 μL/min within 2 hr. after sample preparation. The source temperature was kept at 70° C. and the cone voltage was 20 V for all the analysis. Data were processed using Masslynx 3.5 software. The MS assay gives data on the ability of compounds to bind to Aβ, whereas the ThT, EM and CD assays give data on inhibition of fibrillogenesis.

T1 sequence (P05067 672-711 limits assumed): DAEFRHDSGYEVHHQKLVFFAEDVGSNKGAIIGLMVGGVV

SMILES | MS Assay
COc1ccc(C(=N)NCCCCCNC(=N)c2ccc(OC)cc2)cc1 [Compound 154] | +
COc1ccc(C(=N)NCCN2CCN=C2c2ccc(OC)cc2)cc1 [Compound 153] | +
CCOC(=O)c1ccc(C(=O)NCCCCCCCNC(=O)c2ccc(C(=N)N)cc2)cc1 [Compound 148] | +
N=C(N)c1ccc(C(=O)NCCN(CCNC(=O)c2ccc(C(=N)N)cc2)C(=O)c2ccc(C(=N)N)cc2)cc1 [Compound 155] | −
N=C(N)c1ccc(S(=O)(=O)NCCCCCCCCCNS(=O)(=O)c2ccc(C(=N)N)cc2)cc1 [Compound 158] | −
CCOC(=O)c1ccc(C(=O)NCCCCCCCCCNC(=O)c2ccc(C(=N)N)cc2)cc1 [Compound 149] | +
N=C(NCCCCCCCNC(=O)c1ccc(Br)cc1)c1ccc(Br)cc1 [Compound 146] | +
COc1ccc(C(=N)NCCCCCCCCCNC(=N)c2ccc(OC)cc2)cc1 [Compound 152] | −
N=C(NCCCCCCCN)c1ccc(Br)cc1 [Compound 145] | +
N=C(NCCCCCNC(=N)c1ccc(Br)cc1)c1ccc(Br)cc1 [Compound 150] | +
N/C(=N\O)c1ccc(OCCCCCCCCCNO)cc1 [Compound 147] | −
Nc1ccc(OCCCCCOc2ccc(NC3=NCCN3)cc2)cc1 [Compound 156] | −
N=C(NCCCCCCCCCNC(=N)c1ccc(Br)cc1)c1ccc(Br)cc1 [Compound 151] | +

Source: patent US7262223B2, “Amidine derivatives for treating amyloidosis” (Neurochem (International) Limited, priority 2004, dated 2007)
